The subject of test [1] is oligodendrocytes in adult mice. Nature of the test: IFN-γ expression in the CNS of adult mice (released from doxycycline at 4 weeks of age). It is filed as in vivo. An excerpt: Compared with the actively myelinating oligodendrocytes of young growing animals, oligodendrocytes in adult mice produce lower levels of membrane proteins and lipids, just enough to maintain homeostasis in the myelin structure (Morell, et al. (1999) Basic Neurochemistry: Molecular, Cellular, and Medical Aspects (Philadelphia, Pa.: Lippincott-Raven Publishers): 69-93). The ER of oligodendrocytes in adult animals may thus have more spare capacity to process increased protein load and as such may be less sensitive to disruptions of the protein secretory pathway. To examine this possibility, double transgenic mice were allowed to develop to maturity, at which time IFN-γ expression in the CNS was initiated.

The test system of test [2] is corpus callosum of double transgenic mice treated with cuprizone. Description: Cuprizone-induced demyelination/remyelination in GFAP/tTA; TRE/IFN-γ double transgenic mice (DOX− expresses IFN-γ). Type of test: in vivo. The protocol:
The effects of IFN-γ on demyelination were evaluated in a cuprizone animal model using transgenic mice that allow for temporally regulated delivery of IFN-γ using the tetracycline controllable system (Lin, et al. (2004) J. Neurosci. 24: 10074-10083). The transgenic mice were generated by mating line 110 GFAP/tTA mice on the C57BL/6 background with line 184 TRE/IFN-γ on the C57BL/6 background to produce GFAP/tTA; TRE/IFN-γ double transgenic mice (Lin, et al. (2004) J. Neurosci. 24: 10074-10083). Transcriptional activation of the TRE/IFN-γ transgene by tTA was repressed in the control (DOX+) mice by adding 0.05 mg/ml doxycycline to the drinking water which was provided ad libitum from the day of conception. The DOX+ double transgenic mice were GFAP/tTA; TRE/IFN-γ double transgenic animals fed cuprizone chow and never released from the doxycycline solution. DOX− double transgenic mice were GFAP/tTA; TRE/IFN-γ double transgenic animals fed cuprizone chow and released from doxycycline to induce expression of IFN-γ.
Demyelination was induced in 6-week-old DOX+ and DOX− male mice by feeding the mice a diet of milled mouse chow containing 0.2% cuprizone (Sigma-Aldrich, St. Louis, […].) for up to 6 weeks. Subsequently, both groups of mice were returned to a normal diet for up to 3 weeks to allow remyelination to occur. All animal procedures were conducted in complete compliance with the NIH Guide for the Care and Use of Laboratory Animals and were approved by the Institutional Animal Care and Use Committee of The University of Chicago.
The expression of IFN-γ in these animals was examined by Enzyme-Linked Immunosorbent Assay (ELISA) analysis as follows. Spinal cord and forebrains were removed, rinsed in ice cold PBS, and immediately homogenized in five volumes of PBS with complete protease cocktail (Roche, Indianapolis, Ind.) using a motorized homogenizer. After incubation on ice for 5 min the extracts were cleared by centrifugation at 14000 rpm for 10 min. The protein content of each extract was determined by the DC protein assay (Bio-Rad, Hercules, Calif.). ELISA assays were performed using Mouse IFN-γ Quantikine ELISA kit (R&D system, Minneapolis, Minn.) and MBP antibodies (1:1000; Sternberger Monoclonals) according to the manufacture's instructions.
Real time PCR was used to determine the effect of IFN-yon the expression of MHC-1. RNA was isolated from the corpus callosum (Jurevics, et al., 2002) using Trizol reagent (Invitrogen, Carlsbad, Calif.) and treated with DNAseI (Invitrogen, Carlsbad, Calif.) to eliminate genomic DNA. Reverse transcription was performed using Superscript First Strand Synthesis System for RT-PCR kit (Invitrogen, Carlsbad, Calif.). Real-time PCR was performed with iQ supermix (Bio-Rad, Hercules Calif.) on a Bio-Rad iQ real-time PCR detection system (Bio-Rad, Hercules Calif.). The primers and probes (Integrated DNA Technologies Inc., Coralville, Iowa) for real-time PCR were as follows:
The effect of INF-γ on the population of oligodendrocytes was evaluated by immunohistochemical analysis of oligodendrocytes using an anti-CC1 antibody (APC7, 1:50; EMD Biosciences, Inc., La Jolla, Calif.) Immunohistochemistry was perfomed on brain sections obtained from mice that were first anesthetized mice and perfused through the left cardiac ventricle with 4% paraformaldehyde in 0.1M PBS. The brains were removed, postfixed with paraformaldehyde, cryopreserved in 30% sucrose, embedded in OCT and frozen on dry ice. Frozen sections were cut in a cryostat at a thickness of 10 μm. […]

The subject of test [3] is EAE demyelinating lesions. Nature of the test: EAE, CNS delivery of INF-γ at the recovery stage (doxycycline withdrawn at PID7). Type of test: in vivo, mice. An excerpt: Double transgenic mice that allow for temporally regulated delivery of INF-γ to the CNS (Lin et al., J Neurosci 24:10074-10083 (2004)) were used to assess the role of INF-γ in the pathogenesis of EAE. GFAP/tTA; TRE/IFN-γ double transgenic mice, as described in Example 1 were used to determine the effect of INF-γ on the demyelination caused by EAE. All mice were fed doxycycline from the day of conception to repress the expression of INF-γ, and were immunized with myelin oligodendrocyte protein (MOG35-55) to induce EAE. AT day 7 postimmunization (PID7), doxycycline was withdrawn from the experimental group (PID7 DOX−).
The level of INF-γ was determined in the control (DOX+) and the PID7 DOX− mice using an ELISA immunoassay as described in Example 1, and the severity of the disease was assessed as a function of a clinical score. Clinical severity scores were recorded daily according to a 0-5 point scale, where 0=healthy, 1=flaccid tail, 2=ataxia and/or paresis of hind limbs, 3=paralysis of hind limbs and/or paresis of forelimbs, 4=tetraparalysis, and 5=moribund or dead.
The spinal cord from DOX+ and DOX− animals with EAE was immunostained for MBP, and the remyelination of axons was evaluated. The number of oligodendrocytes was determined in the spine from DOX+ and DOX− mice as the number of CC1 positive cells. Axonal damage was evaluted by immunostaining of non-phosphorylated neurofilament-H. Antibodies to non-phosphorylated neurofilament-H were SM132 diluted to 1:1000 and obtained from Sternberger Monoclonals.
INF-γ is known to induce MHC antigens and activate macrophages and T lymphocytes. The inflammatory effect of INF-γ was studied in the CNS during remyelination by determining the infiltration of T cells and macrophages, and measuring the expression of MHC-1, TNF-a, IL-2, IL-12 and IL-17. Immunohistochemistry was performed in tissues from the DOX+ and DOX− mice with EAE as described in Example 4. Experimental procedures were followed as described in the examples above.

Where [4] appears, read: DOX− vs DOX+, spinal cord PID50.

For the substance “IFN-γ: pleotropic cytokine secreted by activated T lymphocytes and natural killer cells; delivered to the CNS by transgene or added as recombinant protein”, the “BIP and CHOP in the cerebellum” value in test [1] (10-week-old double transgenic mice) is “modest induction”. The “myelin in the CNS (ultrastructural examination)” value in test [1] (10-week-old, wild-type or PERK+/− background) is given as “normal myelin”. The oligodendrocyte survival entry in test [1] (adult mice, also PERK+/− background) was “did not affect”. For the same substance, the “CC1 positive oligodendrocytes within the corpus callosum” value in test [2] (DOX− mice, 8 weeks) is 78±12.7 /0.04 mm2. In addition, the “NG2 positive OPCs in the corpus callosum” value in test [2] (DOX− mice, week 4 of cuprizone treatment) is 46±4.24 /0.04 mm^2. Further, in test [2] (DOX− mice, week 6), the “NG2 positive OPCs in the corpus callosum” value was 31.5±0.71 /0.04 mm^2. Moreover, the “expression of myelin genes MBP, PLP and CGT” value in test [2] (DOX− mice, week 6 and week 8) was “significantly depressed”. Also, the “remyelinated axons (EM)” value in test [2] (DOX− mice, week 8) is 26.9%±7%. Besides, in test [2] (demyelination phase), the “effect on the initial pathological processes induced by cuprizone exposure” value is “does not have a significant effect”. In addition, the “expression of MHC-I in the corpus callosum (real-time PCR)” value in test [2] (during remyelination) is “significant increase”. In addition, the “number of CC1 positive oligodendrocytes” value in test [3] (DOX− animals, PID50) is “significantly decreased”. For the same substance, the “mice that developed hind limb paralysis” value in test [3] (DOX− mice, PID17) was 24 of 30. In addition, in test [3] (DOX− mice, PID17, 0-5 scale), the “mean maximum clinical score” value is listed as 2.69±0.69. Further, in test [3] (DOX− mice, PID50), the clinical score is listed as around 2 and the “mice continuing to suffer from hind limb paralysis” value is 12/24. The “axonal damage (non-phosphorylated neurofilament-H immunostaining)” value in test [3] (DOX− vs DOX+) is “not affected”. Besides, the “level of MBP in the lumbar spinal cord (immunostaining)” value in test [3] (DOX− vs DOX+ mice) is listed as “notably reduced”. For the same substance, in test [3] (setting [4]), the “expression of IL-17 (real time PCR)” value is “decrease”; the “expression of MHC-1, TNF-a, LL2 and IL-12 (real time PCR)” value is on record as “increased”; the “expression of iNOs and IL-23 (real time PCR)” value was “did not alter”. Also, in test [3] (mouse, in vivo), the “number of infiltrating T cells and macrophages in the lumbar spinal cord (CD3, CD11b)” value was “did not increase significantly”.

For the origin of these results see patent US8053627B2, “Methods for treating demyelination disorders” (University of Chicago, priority 2005, dated 2011).
